Reference: ChEMBL document CHEMBL5523751, “Discovery of Novel Diaryl-Substituted Fused Heterocycles Targeting Katanin and Tubulin with Potent Antitumor and Antimultidrug Resistance Efficacy” (J Med Chem, 2024)
Active and inactive are the calls of the source. No cut-off for these calls is given here.

What was measured:
[1] = Toxicity in Balb/C nude mouse xenografted with A549/Taxol assessed as adverse effect at 15 mg/kg, ip measured after 14 days; type: organism-based, A549/TR; details: in vivo, 336 h, time 14 day
[2] = Acute toxicity in ICR mouse assessed as survival rate at 300 mg/kg, ip measured after 14 days relative to control; type: organism-based; details: in vivo, time 14 day
MCF7 [3] = experiment: Inhibition of colony formation in human MCF7 cells at 5 to 10 nM incubated for 48 hrs; type: functional, cell-based; details: dose 5-10 nM
MCF7 [4] = experiment: Induction of apoptosis in human MCF7 cells assessed as viable cells at 20 nM measured after 48 hrs by annexin-FITC and propidium iodide staining based flow cytometry analysis (reference value: 94.69%); type: functional; details: read-out: Activity
MDA-MB-231 [5] = experiment: Antitumor activity against human MDA-MB-231 cells xenografted in BALB/c nude mouse model assessed as inhibition of tumor growth volume administered as IP dose measured after 14 days; type: functional; details: dose 7.5-15 mg/kg, time 14.0 day
[6] = Oral bioavailability in mouse at 15 mg/kg measured upto 24 hrs by LC-MS/MS analysis; type: ADME, organism-based; details: in vivo
MDA-MB-231 [7] = experiment: Antitumor activity against human MDA-MB-231 cells xenografted in BALB/c nude mouse model assessed as tumor weight reduction at 7.5 mg/kg, ip measured after 14 days relative to control; type: functional; set-up: scale not given: the % may be the effect or the level left; details: time 14 day
Tubulin (Homo sapiens) = Tubulin (Homo sapiens) (UniProt P68371+Q9H4B7+P0DPH7+P68366+Q13509+Q71U36+P04350+Q3ZCM7+P07437+P68363+Q9BQE3+Q6PEY2+Q13885+Q9BVA1+Q9BUF5); experiment: Inhibition of microtubule assembly in human MCF7 cells assessed as decrease in density at 1 to 10 nM incubated for 24 hrs by immunofluorescence assay; type: cell-based; details: dose 1-10 nM
MGC-803 = experiment: Antiproliferative activity against human MGC-803 assessed as inhibition of cell growth measured after 48 hrs by MTT assay; type: functional, cell-based; details: MGC-803, 48 h
MCF7 [8] = experiment: Induction of apoptosis in human MCF7 cells assessed as upregulation of p53 protein level by Western blot analysis; type: functional, cell-based; details: dose 10-40 nM
[9] = Toxicity in ICR mouse assessed as lethal dose administered as IP dose measured upto 14 days; details: in vivo, time < 14 day
MCF7 [10] = experiment: Induction of apoptosis in human MCF7 cells assessed as early apoptotic cells at 40 nM measured after 48 hrs by annexin-FITC and propidium iodide staining based flow cytometry analysis (reference value: 1.20%); type: functional
MCF7 [11] = experiment: Antiproliferative activity against human MCF7 cells assessed as inhibition of cell growth measured after 48 hrs by MTT assay; type: functional, cell-based; details: MCF7, 48 h
[12] = Antiproliferative activity against human HUVEC cells assessed as cell viability at 30 to 60 nM measured after 6 hrs by MTT assay relative to control; type: toxicity, cell-based; details: dose 30-60 nM, read-out: Activity
[13] = Toxicity in Balb/C nude mouse assessed as abnormalities in lung at 7.5 to 15 mg/kg, ip measured after 14 days by H and E staining based analysis; type: organism-based; details: in vivo, 336 h, dose 7.5-15 mg/kg, time 14 day
MCF7 [14] = experiment: Induction of apoptosis in human MCF7 cells assessed as viable cells at 40 nM measured after 48 hrs by annexin-FITC and propidium iodide staining based flow cytometry analysis (reference value: 94.69%); type: functional; details: read-out: Activity
[15] = Toxicity in Balb/C nude mouse xenografted with A549/Taxol assessed as effect on heart at 15 mg/kg, ip measured after 14 days by H and E staining based analysis; type: organism-based, A549/TR; details: in vivo, 336 h, time 14 day
MCF7 [16] = experiment: Induction of apoptosis in human MCF7 cells assessed as necrotic cells at 20 nM measured after 48 hrs by annexin-FITC and propidium iodide staining based flow cytometry analysis (reference value: 0.18%); type: functional
MDA-MB-231 [17] = experiment: Antitumor activity against human MDA-MB-231 cells xenografted in BALB/c nude mouse model assessed as inhibition of tumor growth weight administered as IP dose measured after 14 days; type: functional; details: dose 7.5-15 mg/kg, time 14.0 day
[18] = Half life in mouse at 3 mg/kg, iv measured upto 24 hrs by LC-MS/MS analysis; type: ADME, organism-based; details: in vivo
U-87 MG = experiment: Antiproliferative activity against human U-87 MG assessed as inhibition of cell growth measured after 48 hrs by MTT assay; type: functional, cell-based, U-87MG ATCC
[19] = Resistance index, ratio of IC50 for antiproliferative activity against human A549/Taxol cells to IC50 for antiproliferative activity against human A549 cells; type: functional
MCF7 [20] = experiment: Upregulation of histone H3 phosphorylation level in human MCF7 cells at 1 to 10 nM by Western blot analysis; type: functional, cell-based; details: dose 1-10 nM
[21] = Tmax in mouse at 3 mg/kg, iv measured upto 24 hrs by LC-MS/MS analysis; type: ADME, organism-based; details: in vivo
SK-OV-3 = experiment: Antiproliferative activity against human SK-OV-3 cells assessed as inhibition of cell growth measured after 48 hrs by MTT assay; type: functional, cell-based; details: SK-OV-3, 48 h
A549/TR = experiment: Antitumor activity against paclitaxel resistant human A549/Taxol cells xenografted in BALB/c nude mouse model assessed as inhibition of tumor growth at 15 mg/kg, ip measured after 14 days relative to control; type: functional; set-up: scale not given: the % may be the effect or the level left; details: time 14 day
[22] = Toxicity in Balb/C nude mouse assessed as abnormalities in spleen at 7.5 to 15 mg/kg, ip measured after 14 days by H and E staining based analysis; type: organism-based; details: in vivo, 336 h, dose 7.5-15 mg/kg, time 14 day
[23] = Toxicity in Balb/C nude mouse xenografted with A549/Taxol assessed as effect on kidney at 15 mg/kg, ip measured after 14 days by H and E staining based analysis; type: organism-based, A549/TR; details: in vivo, 336 h, time 14 day
MCF7 [24] = experiment: Induction of apoptosis in human MCF7 cells assessed as early apoptotic cells at 20 nM measured after 48 hrs by annexin-FITC and propidium iodide staining based flow cytometry analysis (reference value: 1.20%); type: functional

COc1cc(-n2cnc3ccc(-c4ccc(C)c(N)c4)nc32)cc(OC)c1OC
Activity [1]: Non-Toxic
survival at 336 h [2]: 0%
inhibition (MCF7 [3]): Active
viability at 0.02 µM (MCF7 [4]): 46.6%
Activity (MDA-MB-231 [5]): Dose-Dependent Effect
bioavailability [6]: 40%
Activity (MDA-MB-231 [7]): 63%
inhibition (Tubulin (Homo sapiens)): Active
IC50 (MGC-803): 500 pM
Activity (MCF7 [8]): Dose-Dependent Effect
LD50 at 336 h [9]: 150 mg/kg
Activity (MCF7 [10]): 32.55%
IC50 (MCF7 [11]): 1000 pM
viability at 6 h, 0.06 µM [12]: > 90%
Activity [13]: Non-Toxic
viability at 0.04 µM (MCF7 [14]): 40.1%
Activity [15]: Non-Toxic
Activity (MCF7 [16]): 0.62%
Activity (MDA-MB-231 [17]): Dose-Dependent Effect
half-life [18]: 63.6 min
IC50 (U-87 MG): 15000 pM
Ratio IC50 [19]: 1.45
Activity (MCF7 [20]): Active
Tmax [21]: 4.8 min
IC50 (SK-OV-3): 800 pM
Activity (A549/TR): 74%
Activity [22]: Non-Toxic
Activity [23]: Non-Toxic
Activity (MCF7 [24]): 31.28%
